This is an account of results in patent US8470363B2, “Antihypertensive pharmaceutical composition” (Shihuida Pharmaceuticals Group (JILIN) Ltd., priority 2010, dated 2013).

Series [1] concerns spontaneous hypertension SHR rats. Briefly: Edema side effect in the SHR rat blood pressure test. The format is in vivo. As to conditions: intragastric. The source says: (§1) Experiment method: 50 health spontaneous hypertension SHR rats (female to male 1:1, weight 200-240 g) were equally divided into 5 groups according to the level of the hypertension (the specific grouping method is as shown in Table 3), and intragastrically administrated with the medicine. For the blood pressure of the rate, the systolic pressure at the tail artery of the rat when being wake and quite was indirectly measured by an electronic blood pressure meter through the tail volume method respectively before administration and at the end of one, two, three, and four weeks after administration.

For series [2] the following is noted: background statement, species not given; cited from earlier work.
The subject of series [3] is spontaneous hypertension SHR rats. As to the kind of experiment: Blood pressure depressing test in rats (tail artery systolic pressure, tail volume method). The following applies: for systolic pressure at the tail artery, before administration: baseline before administration, n=10 per group; for antihypertensive effect compared with the blank model group / systolic pressure at the tail artery, 1 week after administration / systolic pressure at the tail artery, 2 weeks after administration / systolic pressure at the tail artery, 3 weeks after administration / systolic pressure at the tail artery, 4 weeks after administration: intragastric; for antihypertensive effect compared with the blank model group: doses as in Table 3; for systolic pressure at the tail artery, 1 week after administration / systolic pressure at the tail artery, 2 weeks after administration / systolic pressure at the tail artery, 3 weeks after administration / systolic pressure at the tail artery, 4 weeks after administration: levamlodipine benzenesulfonate 5 mg/kg·d, indapamide 5 mg/kg·d, compound low-dose 2.5+0.5 mg/kg·d, compound high-dose 2.5+2.5 mg/kg·d. It is filed as in vivo, rat.
Text: as §1, with “administration. [table]” for “administration.”

Consider `CC1Cc2ccccc2N1NC(=O)c1ccc(Cl)c(S(N)(=O)=O)c1` (stereo not drawn) [Indapamide, indapamide], for which the “occurrence of edema side effect” value in series [1] (doses as in Table 3, up to 4 weeks) is given as “no edema occurred”. In addition, in series [2], the half-life is reported as 17 h. In series [3], the “systolic pressure at the tail artery, before administration” value was found to be 27.02 ± 1.39 KPa; the “antihypertensive effect compared with the blank model group” value was “significant antihypertensive effect”; the “systolic pressure at the tail artery, 1 week after administration” value is 26.88 ± 1.38 Kpa; the “systolic pressure at the tail artery, 2 weeks after administration” value was 25.85 ± 1.38 KPa. Moreover, in series [3], the “systolic pressure at the tail artery, 3 weeks after administration” value was 25.56 ± 1.35 KPa and the “systolic pressure at the tail artery, 4 weeks after administration” value is reported as 25.36 ± 1.36 KPa.
Take levamlodipine benzenesulfonate: the edema incidence rate in series [1] (5 mg levamlodipine benzenesulfonate/kg·d, up to 4 weeks) amounted to 10%. In addition, in series [3], the “systolic pressure at the tail artery, before administration” value turned out to be 26.96 ± 1.29 KPa; the “antihypertensive effect compared with the blank model group” value was “significant antihypertensive effect”; the “systolic pressure at the tail artery, 1 week after administration” value came to 26.79 ± 1.31 Kpa; the “systolic pressure at the tail artery, 2 weeks after administration” value is on record as 25.33 ± 1.26 KPa. Besides, in series [3], the “systolic pressure at the tail artery, 3 weeks after administration” value is reported as 24.55 ± 1.28 KPa and the “systolic pressure at the tail artery, 4 weeks after administration” value was found to be 23.87 ± 1.28 KPa.
